Like-named read-outs stand apart in the source and are kept apart here.
Columns and labels:
[1] = DPPH+ free radical scavenging antioxidant assay
Procedure: Antioxidant activity was studied with the DPPH^+ free radical scavenging assay[46]^,[47]. DPPH^+ and trolox were purchased from Sigma-Aldrich®. The following method was employed, as previously described, to determine the antioxidant activity of the test compounds. Each well of a 96 well plate, contained the following: 180 µL of 0.12 mM DPPH^+ dissolved in methanol and 20 µL of either test compound, control (trolox) or blank (DMSO). The test compounds and control were dissolved in DMSO and added to the well to yield various concentrations (1000 µM, 100 µM, 10 µM, 1 µM and 0.1 µM). […] The well plate was incubated at 25 °C for 30 min within a dark space. […] The quantity of DMSO per well accumulated to below 0.01%[45]. […] The percentage activity was calculated using the following equation: [(absorbance of blank − absorbance of test compounds)/absorbance of blank × 100)]. All data analysis was conducted on GraphPad Prism version 8.2.1 for Mac OS, GraphPad Software (San Diego, California, USA).
The 2,2-diphenyl-1-picrylhydrazyl (DPPH^+) assay was employed to determine the antioxidant ability of the synthesised compounds.

[2] = molecular target: T1, eeAChE (Electrophorus electricus, UniProt O42275); experiment: Cholinesterase inhibition assay (modified Ellman's method), eeAChE; format: biochemical; conditions: for IC50: eeAChE, Ellman, 25 °C, triplicate, read-out: AChE IC50; for SI AChE (AChE selectivity index = IC50(eqBuChE)/IC50(eeAChE)): ratio BuChE/AChE
T1 construct: purchased Sigma-Aldrich
T1 sequence (O42275 24-633): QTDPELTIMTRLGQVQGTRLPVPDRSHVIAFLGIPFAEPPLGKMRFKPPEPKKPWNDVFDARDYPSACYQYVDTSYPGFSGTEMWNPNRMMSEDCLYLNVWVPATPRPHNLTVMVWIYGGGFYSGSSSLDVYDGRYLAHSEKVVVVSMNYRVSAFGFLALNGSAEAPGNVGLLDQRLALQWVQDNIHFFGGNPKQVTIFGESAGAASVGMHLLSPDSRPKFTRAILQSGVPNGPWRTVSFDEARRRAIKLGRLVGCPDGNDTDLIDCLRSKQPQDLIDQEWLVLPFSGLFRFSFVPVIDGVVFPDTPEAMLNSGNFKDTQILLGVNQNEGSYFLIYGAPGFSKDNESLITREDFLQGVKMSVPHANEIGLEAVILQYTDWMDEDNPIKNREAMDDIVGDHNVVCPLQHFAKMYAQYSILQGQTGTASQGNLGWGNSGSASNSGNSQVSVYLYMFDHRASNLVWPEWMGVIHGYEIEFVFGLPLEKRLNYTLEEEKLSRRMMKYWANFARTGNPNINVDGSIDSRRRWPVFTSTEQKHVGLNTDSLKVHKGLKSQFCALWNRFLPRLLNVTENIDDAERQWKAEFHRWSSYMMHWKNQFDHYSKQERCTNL
Procedure: (§1) . […] The test compounds and control were dissolved in DMSO and added to the well to yield various concentrations (1000 µM, 100 µM, 10 µM, 1 µM, 0.1 µM and 0.01 µM). The quantity of DMSO per well accumulated to below 0.01%[45]. Each concentration of test compound and control was conducted in triplicate to ensure consistent results. The well-plates were then incubated at 25 °C for 10 min. Thereafter, 30 µL of either the ATCI or BTCI substrate was added to each well. The plate was then placed inside a Rayto 6500 spectrometer and the absorbance was read at 405 nm every 45 s for 5 min. The percentage activity was calculated using the following equation: [(absorbance of blank − absorbance of test compounds)/absorbance of blank × 100)]. All data analysis was conducted on GraphPad Prism version 8.2.1 for Mac OS, GraphPad Software (San Diego, CA, USA)
(§2) The inhibitory activities of the synthesised compounds were evaluated using eeAChE (electric eel) and eqBuChE (equine serum) according to a modified method of Ellman[44]. […].

[3] = molecular target: T2, eqBuChE (Equus caballus, UniProt P81908); experiment: Cholinesterase inhibition assay (modified Ellman's method), eqBuChE; format: biochemical; conditions: 25 °C, triplicate, read-out: BuChE IC50
T2 construct: purchased Sigma-Aldrich; host or cells: equine serum
T2 sequence (P81908 whole entry): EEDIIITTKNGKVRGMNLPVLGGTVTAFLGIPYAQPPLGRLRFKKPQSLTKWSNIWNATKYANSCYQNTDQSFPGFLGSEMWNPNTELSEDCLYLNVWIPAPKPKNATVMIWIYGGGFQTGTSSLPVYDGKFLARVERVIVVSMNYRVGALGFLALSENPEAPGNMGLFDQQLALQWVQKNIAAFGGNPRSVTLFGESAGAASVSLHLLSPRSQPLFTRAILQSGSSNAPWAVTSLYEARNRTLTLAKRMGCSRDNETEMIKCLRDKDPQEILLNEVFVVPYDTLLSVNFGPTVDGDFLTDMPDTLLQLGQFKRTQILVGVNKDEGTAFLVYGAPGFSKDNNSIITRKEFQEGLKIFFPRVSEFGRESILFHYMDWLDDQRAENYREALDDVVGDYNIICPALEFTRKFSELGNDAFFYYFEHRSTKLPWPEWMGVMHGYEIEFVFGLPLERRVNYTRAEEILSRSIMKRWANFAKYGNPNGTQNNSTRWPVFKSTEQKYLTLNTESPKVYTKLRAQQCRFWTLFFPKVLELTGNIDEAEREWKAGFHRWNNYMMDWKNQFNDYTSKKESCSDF
Procedure: as §1, §2

[4] = set-up: method as in PMID 29907205; conditions: read-out: DPPH+ IC50 (antioxidant activity of edaravone); cited from earlier work
[5] = 0.12 mM DPPH+ in methanol, 30 min, 25 °C, 517 nm, read-out: DPPH+ IC50

Compound | IC50 [1, 5] | IC50 [2] | IC50 [3] | SI AChE (AChE selectivity index = IC50(eqBuChE)/IC50(eeAChE)) [2] | IC50 ([1]; supplement, dose response curves, read-out: Antioxidant activity (DPPH+) dose response curve IC50) | IC50 [4]
CC1=NN(c2ccc(C(=O)O)cc2)C(=O)C1 [Compound 1, Edaravone-COOH] | 45.7 µM |  |  |  |  | 
CC1=NN(c2ccc(C(=O)NCc3ccncc3)cc2)C(=O)C1 [Compound 3, 4–(3-Methyl-5-oxo-4H-pyrazol-1-yl)-N-(pyridine-4-ylmethyl)benzamide] | 12.5 µM | > 100 µM | > 1000 µM |  |  | 
CC1=NN(c2ccc(C(=O)NCc3cc[n+](Cc4ccccc4)cc3)cc2)C(=O)C1 [Compound 5a, 1-Benzyl-4-({[4–(3-methyl-5-oxo-4H-pyrazol-1-yl)phenyl]foramido}methyl)pyridin-1-ium bromide] | 22.9 µM | 30 µM | > 1000 µM | >33 |  | 
CC1=NN(c2ccc(C(=O)NCc3cc[n+](Cc4ccccc4F)cc3)cc2)C(=O)C1 [Compound 5b, 1-[(2-Fluorophenyl)methyl]-4-({[4–(3-methyl-5-oxo-4H-pyrazol-1-yl)phenyl]foramido}methyl)pyridin-1-ium bromide] | 28.8 µM | 1.2 µM | > 1000 µM |  |  | 
CC1=NN(c2ccc(C(=O)NCc3cc[n+](Cc4cccc(F)c4)cc3)cc2)C(=O)C1 [Compound 5c, 1-[(3-Fluorophenyl)methyl]-4-({[4–(3-methyl-5-oxo-4H-pyrazol-1-yl)phenyl]foramido}methyl)pyridin-1-ium bromide] | 25 µM | 4.6 µM | 926 µM | 201 |  | 
CC1=NN(c2ccc(C(=O)NCc3cc[n+](Cc4ccc(F)cc4)cc3)cc2)C(=O)C1 [Compound 5d, 1-[(4-Fluorophenyl)methyl]-4-({[4–(3-methyl-5-oxo-4H-pyrazol-1-yl)phenyl]foramido}methyl)pyridin-1-ium bromide] | 11.5 µM | 3.6 µM | > 1000 µM | >278 |  | 
CC1=NN(c2ccc(C(=O)NCc3cc[n+](Cc4ccccc4Cl)cc3)cc2)C(=O)C1 [Compound 5e, 1-[(2-Chlorophenyl)methyl]-4-({[4–(3-methyl-5-oxo-4H-pyrazol-1-yl)phenyl]foramido}methyl)pyridin-1-ium bromide] | 13.8 µM | 1.9 µM | 890 µM | 468 |  | 
CC1=NN(c2ccc(C(=O)NCc3cc[n+](Cc4cccc(Cl)c4)cc3)cc2)C(=O)C1 [Compound 5f, 1-[(3-Chlorophenyl)methyl]-4-({[4–(3-methyl-5-oxo-4H-pyrazol-1-yl)phenyl]foramido}methyl)pyridin-1-ium bromide] | 13.1 µM | 3.3 µM | 891 µM | 270 |  | 
CC1=NN(c2ccc(C(=O)NCc3cc[n+](Cc4ccccc4Br)cc3)cc2)C(=O)C1 [Compound 5g, 1-[(2-Bromophenyl)methyl]-4-({[4–(3-methyl-5-oxo-4H-pyrazol-1-yl)phenyl]foramido}methyl)pyridin-1-ium bromide] | 19 µM | 3.5 µM | 160 µM | 46 | 19 µM | 
CC1=NN(c2ccc(C(=O)NCc3cc[n+](Cc4cccc(Br)c4)cc3)cc2)C(=O)C1 [Compound 5h, 1-[(3-Bromophenyl)methyl]-4-({[4–(3-methyl-5-oxo-4H-pyrazol-1-yl)phenyl]foramido}methyl)pyridin-1-ium bromide] | 13.3 µM | > 100 µM | > 1000 µM |  |  | 
CC1=NN(c2ccc(C(=O)NCc3cc[n+](Cc4ccc(Br)cc4)cc3)cc2)C(=O)C1 [Compound 5i, 1-[(4-Bromophenyl)methyl]-4-({[4–(3-methyl-5-oxo-4H-pyrazol-1-yl)phenyl]foramido}methyl)pyridin-1-ium bromide] | 18.1 µM | 11.5 µM | > 1000 µM | >87 |  | 
CC1=NN(c2ccc(C(=O)NCc3cc[n+](Cc4ccccc4C)cc3)cc2)C(=O)C1 [Compound 5j] | 9.5 µM | 19.9 µM | 630 µM | 32 |  | 
CC1=NN(c2ccc(C(=O)NCc3cc[n+](Cc4cccc(C)c4)cc3)cc2)C(=O)C1 [Compound 5k] | 27.5 µM | 69.1 µM | > 1000 µM | >15 |  | 
CC1=NN(c2ccc(C(=O)NCc3cc[n+](Cc4ccc(C)cc4)cc3)cc2)C(=O)C1 [Compound 5l] | 14.5 µM | 95.5 µM | > 1000 µM | >11 |  | 
CC1=NN(c2ccccc2)C(=O)C1 [Edaravone] |  |  |  |  |  | 4.7 µM
Cc1c(C)c2c(c(C)c1O)CCC(C)(C(=O)O)O2 (centres unmarked) [Trolox, reference compound] | 13.1 µM |  |  |  |  | 

From PMC7470113, “Design, synthesis and biological evaluation of edaravone derivatives bearing the N-benzyl pyridinium moiety as multifunctional anti-Alzheimer’s agents” (Journal of Enzyme Inhibition and Medicinal Chemistry, 2020)
